“Also recorded” adds a separate entry of the source.
Tests used:
[1] = test system: PBMC from HIV-infected individuals; experiment: Proliferation of PBMC from HIV-infected individuals, 3H thymidine incorporation; assay type: cell-based, human; conditions: for stimulation of proliferation: higher doses (10^−4M), PBMC of HIV-infected patients; for stimulation of proliferation (incorporation of 3H thymidine, cpm): very low / low doses, PBMC from HIV-infected patients, in vitro
Source text: If desired, additional in vitro assays can be carried out using candidate compounds of the invention, prior to their use in vivo. One such assay employs the candidate compound at a very low concentration, in a test designed to determine whether at low concentrations the compound can stimulate the proliferation of PBMC from HIV infected patients in vitro. As is shown in the data of FIG. 4, stimulation can be measured by, e.g., incorporation of a labelled nucleotide. Peripheral blood mononuclear cells (PBMC) were obtained by standard methods from HIV-infected individuals, and from uninfected individuals. Varying dosages of KBP or VBP were contacted with the PBMC in vitro, and stimulation of proliferation was measured by incorporation of ^3H thymidine (cpm).

[2] = test system: cytoplasmic T-cell enzyme (post-prolyl dipeptidase) in Jurkat T-cell cytoplasmic extract; experiment: Enzymatic activity of Jurkat T-cell cytoplasmic extract, fluorescent cleavage of Ala-ProAFC; assay type: biochemical, human; conditions: varying concentrations
Experimental: A suitable enzyme-containing cell extract can be prepared as follows. First, Jurkat cells (10^6-10^11 cells) are grown and a cell pellet is obtained by centrifugation. The cell pellet is stored in frozen condition.
For use in the assay, the frozen pellet is thawed by the addition of ice cold lysis buffer, in the amount of approximately 1 ml per 10^8 cells. The liquified material is homogenized with ten strokes of a Dounce homogenizer, and then clarified by centrifugation at 1500 g. The supernatant is removed (and saved), and the 1500 g. pellet is resuspended in lysis buffer and homogenized with ten strokes of a Dounce homogenizer. Clarification is again carried out by centrifugation at 1500 g, 4° C.
The 1500 g supernatants are then combined, and EDTA is added to 5mM. The resultant liquid is centrifuged at 75,000 g at 4° C. for twenty minutes, and the supernatant is then removed and centrifuged at 175,000 g. at 4° C., for 60 minutes. […]
In the assay we carried out, we employed a fluorescence spectrometer for excitation at 400 nm and emission at 505 nm. […]
In the test samples, multiple samples are run containing varying concentrations, down to 10^−8 M, of the test compound. […] Enzymatic activity is measured as the accumulation of fluoresence intensity (i.e., substrate cleavage product) over time (1 min.).

CD4/CD8+ T cells = experiment: Cell death of purified resting T-cells, 7AAD flow cytometry; assay type: cell-based, human; conditions: overnight incubation, 10^−4M or 10^−6M
Experimental: CD19+B cells and CD4/CD8+ T cells were isolated (>90% and >97% purity, respectively). The cells were then incubated overnight in the presence or absence of VBP (10^−4M or 10^−6M). The amount of death induced by VBP treatment was determined by 7AAD flow cytometry analysis. The data represents the mean percent of death from duplicate samples.
The amount of cell death was determined by 7AAD flow cytometry analysis. Data represent % of cell death from duplicate samples.

[3] = test system: CD26+ and CD26− PBMC populations; experiment: Cell death of sorted CD26+ and CD26− PBMC populations, 7AAD flow cytometry; assay type: cell-based, human; conditions: overnight, various (moderate) concentrations
Experimental: PBMC were stained with the anti-CD26 monoclonal antibody, 4 EL, and then sorted into CD26^+ and CD26^− populations using a facstar plus dual lasar flow cytometry. The cells expressing the highest level )top 5%) of CD26 and the cells expressing the lowest level (bottom 10%) of CD26 were isolated as the CD26^+ and CD26^− populations respectively. […] The CD26^+ and CD26^− populations were cultured overnight in the presence or absence of various concentrations of VBP. The amount of death induced by VBP treatment was determined by 7AAD flow cytometry analysis. Data represent mean percent of death from duplicate samples +/−SD.
The amount of cell death was determined by 7AAD flow cytometry analysis. Data represent mean % of death from duplicate samples.

| SMILES | stimulation of proliferation [1] | stimulation of proliferation (incorporation of 3H thymidine, cpm) [1] | inhibition of enzymatic activity (AFC release from Ala-ProAFC) [2] | inhibition of enzymatic activity (AFC release from Ala-ProAFC) ([2]; listed as val-boroPro) | cell death / apoptosis (7AAD) (CD4/CD8+ T cells) | cell death / apoptosis (7AAD) (CD4/CD8+ T cells; listed as VBP) | cell death / apoptosis (7AAD) [3] | cell death / apoptosis (7AAD) ([3]; listed as VBP) |
| --- | --- | --- | --- | --- | --- | --- | --- | --- |
| NCCCC[C@H](N)C(=O)N1CCC[C@H]1B(O)O [Lys-boroPro] | do not have this effect | stimulated proliferation; also recorded: cause proliferation | – | – | – | – | – | – |
| CC(C)[C@H](N)C(=O)N1CCC[C@H]1B(O)O [Val-boroPro] | do not have this effect | stimulated proliferation; also recorded: cause proliferation | inhibited | inhibited the cytoplasmic enzyme | highly sensitive | dose-dependent apoptosis | equally susceptible | dose-dependent apoptosis in both CD26^+ and CD26^− populations; also recorded: equally susceptible |

Reference: patent publication US6692753B2, “Potentiation of the immune response” (priority 1997, dated 2004)
